Results reported in patent publication EP4603105A1, “PHARMACEUTICAL COMPOSITION CONTAINING CYCLIC COMPOUND HAVING SELECTIVE KRAS INHIBITORY EFFECT AGAINST HRAS AND NRAS” (CHUGAI SEIYAKU KABUSHIKI KAISHA, priority 2022, dated 2024).
Like-named read-outs stand apart in the source and are kept apart here.

Legend:
[1] = molecular target: GDP-bound NRAS wild-type protein (Homo sapiens, UniProt P01111); assay: Binding to NRAS by surface plasmon resonance (SPR), KD and KD ratio to KRAS; conditions: ratio of KD for GDP-bound NRAS wild-type protein to KD for KRAS
Chain of GDP-bound NRAS wild-type protein (P01111 whole entry): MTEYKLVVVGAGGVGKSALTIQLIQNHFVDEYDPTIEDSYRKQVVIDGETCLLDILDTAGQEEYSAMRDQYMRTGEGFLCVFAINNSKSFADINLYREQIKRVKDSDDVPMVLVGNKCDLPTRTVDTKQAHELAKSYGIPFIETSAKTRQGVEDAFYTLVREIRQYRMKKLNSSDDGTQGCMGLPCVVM
In short: (§1)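 Single-cycle kinetics on GDP-loaded biotin-Avi RAS captured to ~100–300 RU; 75 s ascending injections, 100 µL/min, 30°C. HBS pH 7.4 + 10 mM MgCl2/10 µM GDP/4% DMSO. 1:1 fit, KD.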

[2] = molecular target: HRAS wild-type protein (Homo sapiens, UniProt P01112); assay: Binding to HRAS by surface plasmon resonance (SPR), KD and KD ratio to KRAS; conditions: ratio of KD for HRAS wild-type protein to KD for KRAS
Chain of HRAS wild-type protein (P01112 whole entry): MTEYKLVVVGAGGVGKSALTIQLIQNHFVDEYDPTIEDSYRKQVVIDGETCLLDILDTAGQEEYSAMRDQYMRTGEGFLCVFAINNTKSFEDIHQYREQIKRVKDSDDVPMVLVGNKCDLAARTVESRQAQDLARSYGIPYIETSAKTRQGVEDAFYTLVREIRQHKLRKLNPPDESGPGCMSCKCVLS
In short: as §1

[3] = tested on: human lung cancer strain NCI-H441; type: cell-based
In short: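 Proliferation was scored by […] measured after the reagent was added to cultures kept at 37°C in 5% carbon dioxide.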

[4] = NCI-H441 cells, 4 days, CellTiter-Glo, read-out: NCl-H441 IC50

Structure (SMILES) | NRAS /KRAS [1] | HRAS /KRAS [2] | IC50 [3] [nM] | IC50 [3, 4] [nM]
CCC(CC)[C@H]1C(=O)N(C)[C@H](C(=O)N(C)C)CC(=O)N(C)[C@H]2CCC/C=C/c3ccc(cc3)C[C@@H](C(=O)N(C)CC(=O)N[C@@H](CCc3cc(F)c(C(F)(F)F)c(F)c3)C(=O)N3CCC[C@H]3C(=O)NC3(CC(C)(C)C3)C(=O)N1C)N1CC/C=C\C[C@@H](C1=O)N(C)C(=O)CN(C)C(=O)[C@H]([C@@H](C)CC)NC2=O [PP2600] | A (a compound having 10 or more and less than 20 is denoted as A) | A (a compound having 10 or more and less than 20 is denoted as A) | 2.9 | –
CC[C@H](C)[C@@H]1NC(=O)[C@@H]2CCC/C=C/c3ccc(cc3)C[C@@H](C(=O)N(C)CC(=O)N[C@@H](CCc3ccc(Cl)c(Cl)c3)C(=O)N3CCC[C@H]3C(=O)NC3(CC(C)(C)C3)C(=O)N(C)[C@@H](C3CCCC3)C(=O)N(C)[C@H](C(=O)N(C)CC)CC(=O)N2C)N2CC/C=C\C[C@@H](C2=O)N(C)C(=O)CN(C)C1=O [PP2601] | A (a compound having 10 or more and less than 20 is denoted as A) | A (a compound having 10 or more and less than 20 is denoted as A) | 8.9 | –
CC[C@H](C)[C@@H]1NC(=O)[C@@H]2CCC/C=C/c3ccc(cc3)C[C@@H](C(=O)N(C)CC(=O)N[C@@H](CCc3ccc(Cl)c(Cl)c3)C(=O)N3CCC[C@H]3C(=O)NC3(CC(C)(C)C3)C(=O)N(C)[C@@H](C3CCCC3)C(=O)N(C)[C@H](C(=O)N3CCCC3)CC(=O)N2C)N2CC/C=C\C[C@@H](C2=O)N(C)C(=O)CN(C)C1=O [PP2602] | A (a compound having 10 or more and less than 20 is denoted as A) | A (a compound having 10 or more and less than 20 is denoted as A) | 12.8 | –
CCC(CC)[C@H]1C(=O)N(C)[C@H](C(=O)N(C)C)CC(=O)N(C)[C@H]2CCC/C=C/c3ccc(cc3)C[C@@H](C(=O)N(C)CC(=O)N[C@@H](CCc3ccc(Cl)c(Cl)c3)C(=O)N3CCC[C@H]3C(=O)NC3(CC(C)(C)C3)C(=O)N1C)N1CC/C=C\C[C@@H](C1=O)N(C)C(=O)CN(C)C(=O)[C@H]([C@@H](C)CC)NC2=O [PP2603] | AA (a compound having 20 or more is denoted as AA) | A (a compound having 10 or more and less than 20 is denoted as A) | 25.7 | –
CCC(CC)[C@H]1C(=O)N(C)[C@H](C(=O)N2CCCC2)CC(=O)N(C)[C@H]2CCC/C=C/c3ccc(cc3)C[C@@H](C(=O)N(C)CC(=O)N[C@@H](CCc3ccc(Cl)c(Cl)c3)C(=O)N3CCC[C@H]3C(=O)NC3(CC(C)(C)C3)C(=O)N1C)N1CC/C=C\C[C@@H](C1=O)N(C)C(=O)CN(C)C(=O)[C@H]([C@@H](C)CC)NC2=O [PP2604] | AA (a compound having 20 or more is denoted as AA) | A (a compound having 10 or more and less than 20 is denoted as A) | 20.8 | –
CCO[C@@H]1C[C@H]2C(=O)NC3(CCC3)C(=O)N(C)[C@@H](C3CCCC3)C(=O)N(C)[C@H](C(=O)N(C)C)CC(=O)N(C)[C@@H](CC3CCCC3)C(=O)N[C@@H]([C@@H](C)CC)C(=O)N(C)CC(=O)N(C)[C@H]3C/C=C\CCN(C3=O)[C@@H](Cc3ccc(C)cc3)C(=O)N(C)CC(=O)N[C@@H](CCc3cc(F)c(CC)c(OC)c3)C(=O)N2C1 [PP2674] | A (a compound having 10 or more and less than 20 is denoted as A) | A (a compound having 10 or more and less than 20 is denoted as A) | 48.6 | –
CCO[C@@H]1C[C@H]2C(=O)NC3(CCC3)C(=O)N(C)[C@@H](C3CCCC3)C(=O)N(C)[C@H](C(=O)N(C)C)CC(=O)N(C)[C@@H](CC3CCCC3)C(=O)N[C@@H]([C@@H](C)CC)C(=O)N(C)CC(=O)N(C)[C@H]3C/C=C\CCN(C3=O)[C@@H](Cc3ccc(C)cc3)C(=O)N(C)CC(=O)N[C@@H](CCc3cc(C)c(C(F)F)c(C)c3)C(=O)N2C1 [PP2675] | A (a compound having 10 or more and less than 20 is denoted as A) | A (a compound having 10 or more and less than 20 is denoted as A) | 138 | –
CCO[C@@H]1C[C@H]2C(=O)NC3(CCC3)C(=O)N(C)[C@@H](C3CCCC3)C(=O)N(C)[C@H](C(=O)N(C)C)CC(=O)N(C)[C@@H](CC3CCCC3)C(=O)N[C@@H]([C@@H](C)CC)C(=O)N(C)CC(=O)N(C)[C@H]3C/C=C\CCN(C3=O)[C@@H](Cc3ccc(C)cc3)C(=O)N(C)CC(=O)N[C@@H](CCc3cc(C)c(C(F)F)c(F)c3)C(=O)N2C1 [PP2676] | A (a compound having 10 or more and less than 20 is denoted as A) | A (a compound having 10 or more and less than 20 is denoted as A) | 60.8 | –
CCO[C@@H]1C[C@H]2C(=O)NC3(CCC3)C(=O)N(C)[C@@H](C3CCCC3)C(=O)N(C)[C@H](C(=O)N(C)C)CC(=O)N(C)[C@@H](CC3CCCC3)C(=O)N[C@@H]([C@@H](C)CC)C(=O)N(C)CC(=O)N(C)[C@H]3C/C=C\CCN(C3=O)[C@@H](Cc3ccc(C)cc3)C(=O)N(C)CC(=O)N[C@@H](CCc3cc(C)c(C(F)F)c(Cl)c3)C(=O)N2C1 [PP2677] | A (a compound having 10 or more and less than 20 is denoted as A) | A (a compound having 10 or more and less than 20 is denoted as A) | 70.6 | –
CCO[C@@H]1C[C@H]2C(=O)NC3(CCC3)C(=O)N(C)[C@@H](C3CCCC3)C(=O)N(C)[C@H](C(=O)N(C)C)CC(=O)N(C)[C@@H](CC3CCCC3)C(=O)N[C@@H]([C@@H](C)CC)C(=O)N(C)CC(=O)N(C)[C@H]3C/C=C\CCN(C3=O)[C@@H](Cc3ccc(C)cc3)C(=O)N(C)CC(=O)N[C@@H](CCc3cc(Cl)c(C(F)(F)F)c(Cl)c3)C(=O)N2C1 [PP2679] | A (a compound having 10 or more and less than 20 is denoted as A) | A (a compound having 10 or more and less than 20 is denoted as A) | 17.7 | –
CCO[C@@H]1C[C@H]2C(=O)NC3(CCC3)C(=O)N(C)[C@@H](C3CCCC3)C(=O)N(C)[C@H](C(=O)N(C)C)CC(=O)N(C)[C@@H](CC3CCCC3)C(=O)N[C@@H]([C@@H](C)CC)C(=O)N(C)CC(=O)N(C)[C@H]3C/C=C\CCN(C3=O)[C@@H](Cc3ccc(C)cc3)C(=O)N(C)CC(=O)N[C@@H](CCc3ccc(C4CC4)c(F)c3)C(=O)N2C1 [PP2683] | A (a compound having 10 or more and less than 20 is denoted as A) | A (a compound having 10 or more and less than 20 is denoted as A) | 63.3 | –
CCO[C@@H]1C[C@H]2C(=O)NC3(CCC3)C(=O)N(C)[C@@H](C3CCCC3)C(=O)N(C)[C@H](C(=O)N(C)C)CC(=O)N(C)[C@@H](CC3CCCC3)C(=O)N[C@@H]([C@@H](C)CC)C(=O)N(C)CC(=O)N(C)[C@H]3C/C=C\CCN(C3=O)[C@@H](Cc3ccc(C)cc3)C(=O)N(C)CC(=O)N[C@@H](CCc3ccc(C4CC4)c(C)c3)C(=O)N2C1 [PP2685] | A (a compound having 10 or more and less than 20 is denoted as A) | A (a compound having 10 or more and less than 20 is denoted as A) | 133 | –
CCO[C@@H]1C[C@H]2C(=O)NC3(CC(C)(C)C3)C(=O)N(C)[C@@H](C3CCCC3)C(=O)N(C)[C@H](C(=O)N(C)C)CC(=O)N(C)[C@@H](CC(C)C)C(=O)N[C@@H]([C@@H](C)CC)C(=O)N(C)CC(=O)N(C)[C@H]3C/C=C\CCN(C3=O)[C@@H](Cc3ccc(C)cc3F)C(=O)N(C)CC(=O)N[C@@H](CCc3ccc(C(F)(F)F)c(OC)c3)C(=O)N2C1 [PP2688] | A (a compound having 10 or more and less than 20 is denoted as A) | B (a compound having 3 or more and less than 10 is denoted as B) | 6.9 | –
CCO[C@@H]1C[C@H]2C(=O)NC3(CC(C)(C)C3)C(=O)N(C)[C@@H](C3CCCC3)C(=O)N(C)[C@H](C(=O)N(C)C)CC(=O)N(C)[C@@H](CC(C)C)C(=O)N[C@@H]([C@@H](C)CC)C(=O)N(C)CC(=O)N(C)[C@H]3C/C=C\CCN(C3=O)[C@@H](Cc3ccc(C)c(F)c3)C(=O)N(C)CC(=O)N[C@@H](CCc3ccc(C(F)(F)F)c(OC)c3)C(=O)N2C1 [PP2689] | A (a compound having 10 or more and less than 20 is denoted as A) | B (a compound having 3 or more and less than 10 is denoted as B) | – | 6.2
CCO[C@@H]1C[C@H]2C(=O)NC3(CC(C)(C)C3)C(=O)N(C)[C@@H](C3CCCC3)C(=O)N(C)[C@H](C(=O)N(C)C)CC(=O)N(C)[C@@H](CC(C)C)C(=O)N[C@@H]([C@@H](C)CC)C(=O)N(C)CC(=O)N(C)[C@H]3C/C=C\CCN(C3=O)[C@@H](Cc3ccc(C(C)(F)F)cc3)C(=O)N(C)CC(=O)N[C@@H](CCc3ccc(C(F)(F)F)c(OC)c3)C(=O)N2C1 [PP2690] | AA (a compound having 20 or more is denoted as AA) | A (a compound having 10 or more and less than 20 is denoted as A) | – | 3
CCO[C@@H]1C[C@H]2C(=O)NC3(CC(C)(C)C3)C(=O)N(C)[C@@H](C3CCCC3)C(=O)N(C)[C@H](C(=O)N(C)C)CC(=O)N(C)[C@@H](CC(C)C)C(=O)N[C@@H]([C@@H](C)CC)C(=O)N(C)CC(=O)N(C)[C@H]3C/C=C\CCN(C3=O)[C@@H](Cc3ccc(C4CC4)cc3)C(=O)N(C)CC(=O)N[C@@H](CCc3ccc(C(F)(F)F)c(OC)c3)C(=O)N2C1 [PP2691] | AA (a compound having 20 or more is denoted as AA) | A (a compound having 10 or more and less than 20 is denoted as A) | 3.5 | –
CCO[C@@H]1C[C@H]2C(=O)NC3(CC(C)(C)C3)C(=O)N(C)[C@@H](C3CCCC3)C(=O)N(C)[C@H](C(=O)N(C)C)CC(=O)N(C)[C@@H](CC(C)C)C(=O)N[C@@H]([C@@H](C)CC)C(=O)N(C)CC(=O)N(C)[C@H]3C/C=C\CCN(C3=O)[C@@H](Cc3ccc(C(C)C)cc3)C(=O)N(C)CC(=O)N[C@@H](CCc3ccc(C(F)(F)F)c(OC)c3)C(=O)N2C1 [PP2692] | A (a compound having 10 or more and less than 20 is denoted as A) | A (a compound having 10 or more and less than 20 is denoted as A) | 7.7 | –
